Measured values as given in ChEMBL document CHEMBL1146678, “Inhibitors of multidrug resistance (MDR) have affinity for MDR substrates” (Bioorg Med Chem Lett, 2004).
Activity calls are given as the source filed them. The calls are words filed in the database; no cut-off is given here. Numbered stars: 1 amine (or outer) side, 2 acyl side, 3 side chain; on linkers, the order of the positions; unused ones are H or OH. Bridge positions count the residues as written; N and C are the ends. Square brackets hold non-standard residues; d marks the D form. Peptide text beside a SMILES is read from it. I, II: the chains in the order shown. Actinocin(9to1) = Cc1c2oc3c(C)ccc(C(=O)[*:1])c3nc-2c(C(=O)[*:2])c(N)c1=O; NMeV = CN[C@H](C(=O)O)C(C)C; Sar = CNCC(=O)O

Columns and labels:
[1] = Dose modifying factor expressed as the ratio of IC50 for the chemotherapy drug to IC50 for drug + GG918; Range = 1.0-23; format: functional
[2] = Fold reduction in minimum inhibitory concentration of antibiotic in presence of GG918; format: functional
[3] = Fold reduction in minimum inhibitory concentration of antibiotic in presence of Reserpine; format: functional
[4] = tested on: Lycopus europaeus; assay: Inhibitory activity against Lycopus europeus; no inhibitory activity; format: functional, organism-based
[5] = tested on: NCI-H69; assay: Percentage inhibition of cell growth in the presence of compound in H69/LX4 cells with B669 as inhibitor; reversal of inhibition; format: functional, cell-based
[6] = tested on: NCI-H69; assay: Percentage inhibition of cell growth in the presence of compound in H69/LX4 cells with verapamil as inhibitor; reversal of inhibition; format: functional, cell-based
[7] = tested on: NCI-H69; assay: Percentage inhibition of cell growth in the presence of compound in H69/LX4 cells with Clofazemine as inhibitor; reversal of inhibition; format: functional, cell-based
[8] = tested on: NCI-H69; assay: Percentage inhibition of cell growth in the presence of compound in H69/LX4 cells with as GG918 inhibitor; reversal of inhibition; format: functional, cell-based
[9] = Relative resistance is the ratio of IC50 values of drug with JTV-519 to that without the reversing agent; format: functional
[10] = Dose modifying factor expressed as the ratio of IC50 for the chemotherapy drug to IC50 for drug + GG918; Range = 1.2-1850; format: functional
[11] = Fold reduction in fluorescence in presence and absence of MC-002595 at 128 mg/mL; format: functional
[12] = Inhibitory concentration in presence of MDR inhibitor XR-9576; format: functional
[13] = tested on: A549; assay: Synergism with indomethacin in A549 cells; format: functional
[14] = tested on: A549; assay: Synergism with sulindac in A549 cells; format: functional
[15] = tested on: A549; assay: Synergism with tolmetin in A549 cells; format: functional
[16] = tested on: NCI-H69; assay: Approximate percentage for level of inhibition of cell growth in presence and absence of inhibitor (Value of drug + Verapamil / Value of drug); format: functional
[17] = tested on: NCI-H69; assay: Approximate percentage for level of inhibition of cell growth in presence and absence of inhibitor (Value of drug + Clofazimine / Value of drug); format: functional
[18] = Relative inhibition (IC50) in presence and absence of reserpine; format: functional
[19] = tested on: NCI-H69; assay: Approximate percentage for level of inhibition of cell growth in presence and absence of inhibitor (Value of drug + B669 / Value of drug); format: functional
[20] = tested on: NCI-H69; assay: Approximate percentage for level of inhibition of cell growth in presence and absence of inhibitor (Value of drug + alpha Tochoferol / Value of drug); format: functional
[21] = tested on: DLKP cell line; assay: Synergism with sulindac in DLKP cells; format: functional
[22] = tested on: DLKP cell line; assay: Synergism with tolmedin in DLKP cells; format: functional
[23] = tested on: NCI-H69; assay: Approximate percentage for level of inhibition of cell growth in presence and absence of inhibitor (Value of drug + GG918 / Value of drug); format: functional
[24] = tested on: DLKP cell line; assay: Synergism with indomethacin in DLKP cells; format: functional
[25] = tested on: DLKP cell line; assay: Antagonism of indomethacin in DLKP cells; format: functional
[26] = tested on: A549; assay: Antagonism of sulindac in A549 cells; format: functional
[27] = tested on: DLKP cell line; assay: Antagonism of sulindac in DLKP cells; format: functional
[28] = Inhibitory activity in presence of VX-710 inhibitor; successful in clinical trials; format: functional
[29] = tested on: A549; assay: Antagonism of tolmetin in A549 cells; format: functional
[30] = tested on: A549; assay: Antagonism of indomethacin in A549 cells; format: functional
[31] = tested on: NCI-H69; assay: Percentage inhibition of cell growth in the presence of compound and in the absence of […] in H69/LX4 cells with clofazimine MDR inhibitor; format: functional

CC[C@@]1(O)C(=O)OCc2c1cc1n(c2=O)Cc2cc3c(CN(C)C)c(O)ccc3nc2-1
Ratio [1]: 1

CCn1cc(C(=O)O)c(=O)c2cc(F)c(N3CCNCC3)cc21
Fold reduction [2]: 8
Fold reduction [3]: 4
inhibition [4]: inactive

COc1c(N2C[C@@H]3CCCN[C@@H]3C2)c(F)cc2c(=O)c(C(=O)O)cn(C3CC3)c12
Fold reduction [2]: 0
Fold reduction [3]: 2

Cc1c(C)c2c(c(C)c1O)CC[C@@](C)(CCC[C@H](C)CCC[C@H](C)CCCC(C)C)O2
inhibition [5]: reversal of inhibition
inhibition [6]: reversal of inhibition
inhibition [7]: reversal of inhibition
inhibition [8]: reversal of inhibition

Cc1ccc(NC(=O)c2ccc(CN3CCN(C)CC3)cc2)cc1Nc1nccc(-c2cccnc2)n1
Ratio [9]: 3.1

O=C(O)c1cn(C2CC2)c2cc(N3CCNCC3)c(F)cc2c1=O
Fold reduction [2]: 8
Fold reduction [3]: 8

O=C1c2c(O)ccc(O)c2C(=O)c2c(NCCNCCO)ccc(NCCNCCO)c21
Ratio [10]: 1.2

c1ccc(Nc2cccc3ccccc23)cc1
Fold reduction [11]: 2.3

Cc1c2oc3c(C)ccc(C(=O)N[C@@H]4C(=O)N[C@H](C(C)C)C(=O)N5CCC[C@H]5C(=O)N(C)CC(=O)N(C)[C@@H](C(C)C)C(=O)O[C@@H]4C)c3nc-2c(C(=O)N[C@@H]2C(=O)N[C@H](C(C)C)C(=O)N3CCC[C@H]3C(=O)N(C)CC(=O)N(C)[C@@H](C(C)C)C(=O)O[C@@H]2C)c(N)c1=O (I: T[dV]P[Sar][NMeV] / II: T[dV]P[Sar][NMeV]; ester I:1-I:C, II:1-II:C; linker I:N-II:N via Actinocin(9to1))
Ratio [9]: 3

COc1cccc2c1C(=O)c1c(O)c3c(c(O)c1C2=O)C[C@@](O)(C(C)=O)C[C@@H]3O[C@H]1C[C@H](N)[C@H](O)[C@H](C)O1 [DAUNORUBICIN]
IC50 [12]: 0.0382 µM

COc1cccc2c1C(=O)c1c(O)c3c(c(O)c1C2=O)C[C@@](O)(C(=O)CO)C[C@@H]3O[C@H]1C[C@H](N)[C@H](O)[C@H](C)O1 [DOXORUBICIN]
Combination_index [13]: 0.251
Combination_index [14]: 0.368
Combination_index [15]: 0.357
Reduction [16]: ~33%
Reduction [17]: ~40%
Fold increase [18]: 2.9
Reduction [19]: ~31%
Reduction [20]: 0%
Combination_index [21]: 0.449
Combination_index [22]: 0.467
Reduction [23]: ~58%

COc1cc([C@@H]2c3cc4c(cc3[C@@H](O[C@@H]3O[C@@H]5CO[C@@H](C)O[C@H]5[C@H](O)[C@H]3O)[C@H]3COC(=O)[C@H]23)OCO4)cc(OC)c1O [ETOPOSIDE]
Combination_index [13]: 0.916
Combination_index [14]: 0.681
Combination_index [24]: 0.534
Combination_index [21]: 0.463
Ratio [9]: 2.6
Combination_index [22]: 0.745

CC(=O)O[C@H]1C(=O)[C@@]2(C)[C@H]([C@H](OC(=O)c3ccccc3)[C@]3(O)C[C@H](OC(=O)[C@H](O)[C@@H](NC(=O)c4ccccc4)c4ccccc4)C(C)=C1C3(C)C)[C@]1(OC(C)=O)CO[C@@H]1C[C@@H]2O [PACLITAXEL]
Combination_index [25]: 1.227
Combination_index [26]: 1.539
Combination_index [27]: 1.233
inhibition [28]: Active
Combination_index [29]: 1.349
Combination_index [30]: 2.234

CC[C@]1(O)C[C@@H]2CN(CCc3c([nH]c4ccccc34)[C@@](C(=O)OC)(c3cc4c(cc3OC)N(C)[C@H]3[C@@](O)(C(=O)OC)[C@H](OC(C)=O)[C@]5(CC)C=CCN6CC[C@]43[C@@H]65)C2)C1 [VINBLASTINE]
Reduction [16]: ~88%
Fold increase [18]: 8
Reduction [31]: ~94%
Reduction [20]: ~95%

CC[C@]1(O)C[C@H]2CN(CCc3c([nH]c4ccccc34)[C@@](C(=O)OC)(c3cc4c(cc3OC)N(C=O)[C@H]3[C@@](O)(C(=O)OC)[C@H](OC(C)=O)[C@]5(CC)C=CCN6CC[C@]43[C@@H]65)C2)C1 [VINCRISTINE]
Combination_index [13]: 0.301
Combination_index [14]: 0.462
Combination_index [21]: 0.241
Ratio [9]: 3.7
Combination_index [22]: 0.593
